Experiments:
[1] = target: T1, AgrA (C-terminal DNA-binding domain, AgrA_C) (Staphylococcus aureus, UniProt P0A0I7, C199S); test: microscale thermophoresis (Alexa Fluor 647-labeled protein)
T1 sequence (P0A0I7 143-238 C199S): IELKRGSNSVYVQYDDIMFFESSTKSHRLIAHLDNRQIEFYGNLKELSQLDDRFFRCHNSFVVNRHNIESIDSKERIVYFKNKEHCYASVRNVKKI

[2] = target: AgrA (C-terminal DNA-binding domain, AgrA_C) (Staphylococcus epidermidis, UniProt Q8CNM5); test: microscale thermophoresis; also EMSA (F19 blocks P3 DNA binding)

In the case of `CCCCCCc1cc(C(=O)COc2ccc(C(C)C)cc2)c(O)cc1O` [F19], the Kd [1] is reported as 2900 ± 400 nM and the Kd [2] is reported as 2700 ± 700 nM.

With `CCCCCCc1cc(C(=O)COc2ccc(F)cc2F)c(O)cc1O` [F12] the Kd [1] was 4500 ± 400 nM.

From article PMC6167350, “Small-molecule AgrA inhibitors F12 and F19 act as antivirulence agents against Gram-positive pathogens” (Scientific Reports, 2018)
